Measurements as given in patent US11007269B2, “P53 degradation inducing molecule and pharmaceutical composition” (Tokyo University of Science Foundation, priority 2016, dated 2021).

Target: T1, MDM2 protein (Homo sapiens, UniProt Q00987)
T1 construct: endogenous in cells; host or cells: HCT116
Test: Western blot of endogenous MDM2 protein degradation (knockdown) in HCT116 cells
Type: cell-based
Conditions: 48 hours after addition, vs DMSO control
Procedure: In Example 2, degradation (knockdown) of an endogenous wild-type p53 protein and MDM2 protein in HCT116 cells (human large intestinal cancer cells) to which TIBC-CANDDY_MLN had been added was evaluated by Western blot analysis.
HCT116 cells were seeded in a 24-well plate at a cell density of 8×10^4 cells/well, and then cultured under conditions of 37° C. and 5 vol % CO2 for 16 hours.
After 16 hours from cell seeding, TIBC-CANDDY_MLN or TIBC was added to HCT116 cells as follows. As a medium, a serum-free medium (37° C.) in which 1 mass % L-glutamine solution (Sigma-Aldrich) was added to D-MEM (high D-glucose, phenol red, sodium pyruvate (Wako Pure Chemical Industries, Ltd.)) was used. It is noted that the L-glutamine solution was added immediately before use. […]
After electrophoresis, proteins were transferred to a PVDF membrane (Immobion™-P, Millipore) under conditions of 100 V and 2 hours using a tank-type blotting device and a transfer buffer (25 mM Tris-HCl, 195 mM glycine, 0.01% SDS, 15% methanol). […] Subsequently, the membrane was treated with a chemiluminescence reagent Immobilon™ Western (Millipore), and then chemiluminescence was detected using a lumino image analyzer LAS-3000 (FUJIFILM Corporation).

T1 sequence (Q00987 whole entry): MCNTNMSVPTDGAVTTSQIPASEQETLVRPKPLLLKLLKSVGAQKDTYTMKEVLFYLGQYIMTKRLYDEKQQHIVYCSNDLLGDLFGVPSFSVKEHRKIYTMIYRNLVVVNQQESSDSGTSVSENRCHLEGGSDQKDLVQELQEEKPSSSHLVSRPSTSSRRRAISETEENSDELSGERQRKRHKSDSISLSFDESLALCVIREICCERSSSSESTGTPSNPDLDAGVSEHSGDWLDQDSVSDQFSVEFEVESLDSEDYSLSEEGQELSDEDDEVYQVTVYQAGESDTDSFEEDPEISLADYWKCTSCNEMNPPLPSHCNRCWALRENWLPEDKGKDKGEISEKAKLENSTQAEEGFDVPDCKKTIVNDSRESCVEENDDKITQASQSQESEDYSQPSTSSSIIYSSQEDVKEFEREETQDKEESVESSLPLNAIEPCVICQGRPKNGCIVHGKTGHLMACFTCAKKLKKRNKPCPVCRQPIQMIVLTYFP

`CC(C)C[C@H](NC(=O)CNC(=O)c1cc(Cl)ccc1Cl)C(=O)NCCCCCCC(=O)Nc1ccc(C(=O)/C=C/c2ccc(I)cc2)cc1` [TIBC-CANDDY_MLN] was tested, and the “amount of the endogenous MDM2 protein (Western blot)” value was “reduced”.
